Measurements: patent publication US20260184675A1, “CHIRAL ISOMERIC SULFITE COMPOUND AND APPLICATION THEREOF” (Chengdu Hanova BioSciences Co., Ltd, priority 2024, published 2026)

Tests used:
[1] = system: eggs of Harmonia axyridis; assay: Effect on hatching of eggs of Harmonia axyridis, egg card immersion; format: in vivo; conditions: 100 ppm; for Number of hatched larvae 4 days after insecticide delivery, Replicate 1 / Number of hatched larvae 4 days after insecticide delivery, Replicate 2 / Number of hatched larvae 4 days after insecticide delivery, Replicate 3: Harmonia axyridis egg cards, immersed 30 seconds; for Hatching rate (%), Replicate 1 / Hatching rate (%), Replicate 2 / Hatching rate (%), Replicate 3: Harmonia axyridis eggs, 4 days after delivery
Text: The eggs of Harmonia axyridis cards (with approximately 20 eggs per card) were purchased from Henan Jiyuan Baiyun Industry Co., Ltd. in Henan Province. The number of eggs on the egg cards was counted as the basic number before insecticide delivery, and 5 cards were used as one treatment, with 3 replicates per treatment. After immersing the egg cards in a 100 ppm insecticide solution for 30 seconds, they were taken out and air dried, then cultivated under moisturizing conditions, and the […] were cultivated at 27° C. 4 days after insecticide delivery, the hatching status of eggs of Harmonia axyridis was investigated, and the prevention and control effect was calculated according to the following formula. [formula] [formula]

eggs of Thrips = assay: Effect on hatching of eggs of Thrips, leaf disc method; format: in vivo; conditions: 100 ppm; for Hatching rate (%): 5 days after insecticide delivery
Procedure: (§1) • (1) Preparation of leaf discs containing eggs: 20 female adult mites of Tetranychus cinnabarinus were transferred onto leaf discs of Vicia faba with a diameter of 2.0 cm (with wetted filter paper at the bottom), then covered it with a lidded culture dish and cultivated under moisturizing conditions, the adult mites were removed within 36 hours and microscopic examination and counting were performed on leaf discs containing eggs. • (2) Investigation of egg population base: Before pesticide soaking, a microscopic examination was conducted on the egg basic number of each leaf disc, with 2 replicates set for each treatment. • (3) Pesticide soaking treatment: The leaf butterflies loaded with mite eggs were soaked in clear water and sulfite compounds for 10 seconds, respectively, then taken out and cultivated under moisturizing conditions. Each treatment should be repeated for no less than 3 times. • (4) Cultivation and observation: The […] were cultivated under normal conditions. Five days after insecticide delivery, the hatching status of mite eggs was investigated. • Note: The temperature and humidity conditions of the constant temperature and humidity incubator after the treatment should be controlled so as to avoid excessive temperature differences, which may cause generation and dripping of condensate water in the culture dish, resulting in abnormal death of eggs due to soaking in water; it is also necessary to ensure sufficient strong ambient light, without directing irradiating the leaves. • (5) Survey of Results: The experimental materials of each treatment group were regularly hydrated and moisturized, and the hatching of eggs was observed. On the 7th day after insecticide delivery, the number of hatched eggs for each treatment was recorded, and the survey of results was recorded in the original notebook. According to the experimental requirements and characteristics of agents, the survey time can be shortened or extended.
(§2) • 1) Surveying and recording the number of hatched eggs for each treatment. • 2) Photographing and recording whether there was any pesticide damage to the leaf discs of Vicia faba. • 3) Recording the developmental status of experimental mite eggs, behavior status of nymph mites, including abnormal phenomena such as delayed or stopped development of mite eggs, difficulty in breaking hull for nymph mites, or painful struggles after hatching, etc. • (6) Calculation method: Based on the survey data, the prevention and control effect of each treatment was calculated according to the following formula, and the calculation results were kept to two decimal places.
This test adopted the method in Test Example 1 of technical section, mainly used leaf disc method to explore the inhibitory effect on hatching of eggs of Thrips by 1-(S,S), 1-(S,R), 1-(R,R), 1-(R,S), 1′-(S,S), 1′-(S,R), 1′-(R,R), 1′-(R,S), compound 1, compound 1′, S-10, R-10, S-10′, R-10′, compound 10, compound 10′, compound 19-(S,S), 19-(S,R), 19-(R,R), 19-(R,S), 19′-(S,S), 19′-(S,R), 19′-(R,R), 19′-(R,S), compound 19, and compound 19′. The concentration of all compounds was 100 ppm.

eggs of Panonychus citri = assay: Effect on hatching of eggs of Panonychus citri, leaf disc method; format: in vivo; conditions: 1 ppm; for Hatching rate (%), Replicate 1 / Hatching rate (%), Replicate 2 / Hatching rate (%), Replicate 3 / Number of hatched larvae 5 days after insecticide delivery, Replicate 1 / Number of hatched larvae 5 days after insecticide delivery, Replicate 2 / Number of hatched larvae 5 days after insecticide delivery, Replicate 3: Panonychus citri eggs; for Hatching rate (%), Replicate 1 / Hatching rate (%), Replicate 2 / Hatching rate (%), Replicate 3: 5 days after delivery; for Number of hatched larvae 5 days after insecticide delivery, Replicate 1 / Number of hatched larvae 5 days after insecticide delivery, Replicate 2 / Number of hatched larvae 5 days after insecticide delivery, Replicate 3: leaf disc
Procedure: as §1, §2
This test adopted the method in Test Example 1 of technical section, mainly used leaf disc method to explore the effect on hatching of eggs of Panonychus citri by compounds 1-(S,S), 1-(S,R), 1-(R,R), 1-(R,S), 1′-(S,S), 1′-(S,R), 1′-(R,R), 1′-(R,S), compound 1, compound 1′, S-10, R-10, S-10′, R-10′, compound 10, compound 10′, compound 19-(S,S), 19-(S,R), 19-(R,R), 19-(R,S), 19′-(S,S), 19′-(S,R), 19′-(R,R), 19′-(R,S), compound 19, and compound 19′. The concentration of all compounds was 1 ppm.

Magnaporthe grisea = format: cell-based; conditions: 100 ppm; for Average antifungal rate (%) / Antifungal rate of Magnaporthe grisea (%), Replicate 1 / Antifungal rate of Magnaporthe grisea (%), Replicate 2 / Antifungal rate of Magnaporthe grisea (%), Replicate 3: 96-well plate; for Average antifungal rate (%): average of 3 replicates
[2] = Replicate 1, listed as 1′-(R, R)
[3] = Replicate 2, listed as 1′-(R, R)
[4] = Replicate 3, listed as 1′-(R, R)
[5] = Replicate 1, listed as 1′-(R, S)
[6] = Replicate 2, listed as 1′-(R, S)
[7] = Replicate 3, listed as 1′-(R, S)

Compound: CC(COc1ccc(Cl)cc1Cl)OS(=O)OCCF [1′-(R,R)]
- Number of hatched larvae 4 days after insecticide delivery, Replicate 1 ([1]; listed as 1′-(R, R)): 15
- Number of hatched larvae 4 days after insecticide delivery, Replicate 2 ([1]; listed as 1′-(R, R)): 16
- Number of hatched larvae 4 days after insecticide delivery, Replicate 3 ([1]; listed as 1′-(R, R)): 18
- Hatching rate (%), Replicate 1 ([1]; listed as 1′-(R, R)): 17.05%
- Hatching rate (%), Replicate 2 ([1]; listed as 1′-(R, R)): 16.84%
- Hatching rate (%), Replicate 3 ([1]; listed as 1′-(R, R)): 16.22%
- Hatching rate (%) (eggs of Thrips; [2]): 12.68%
- Hatching rate (%) (eggs of Thrips; [3]): 12.79%
- Hatching rate (%) (eggs of Thrips; [4]): 14.29%
- Number of hatched larvae 5 days after insecticide delivery (eggs of Thrips; [2]): 18
- Number of hatched larvae 5 days after insecticide delivery (eggs of Thrips; [3]): 11
- Number of hatched larvae 5 days after insecticide delivery (eggs of Thrips; [4]): 15
- Hatching rate (%), Replicate 1 (eggs of Panonychus citri; listed as 1′-(R, R)): 8.33%
- Hatching rate (%), Replicate 2 (eggs of Panonychus citri; listed as 1′-(R, R)): 7.07%
- Hatching rate (%), Replicate 3 (eggs of Panonychus citri; listed as 1′-(R, R)): 5.51%
- Number of hatched larvae 5 days after insecticide delivery, Replicate 1 (eggs of Panonychus citri; listed as 1′-(R, R)): 6
- Number of hatched larvae 5 days after insecticide delivery, Replicate 2 (eggs of Panonychus citri; listed as 1′-(R, R)): 7
- Number of hatched larvae 5 days after insecticide delivery, Replicate 3 (eggs of Panonychus citri; listed as 1′-(R, R)): 7
- inhibitory rate against Magnaporthe grisea (in words) (Magnaporthe grisea): strong inhibitory rate
- Average antifungal rate (%) (Magnaporthe grisea): 84.86%
- Antifungal rate of Magnaporthe grisea (%), Replicate 1 (Magnaporthe grisea): 84.82%
- Antifungal rate of Magnaporthe grisea (%), Replicate 2 (Magnaporthe grisea): 83.06%
- Antifungal rate of Magnaporthe grisea (%), Replicate 3 (Magnaporthe grisea): 86.71%

Compound: CC(COc1ccc(Cl)cc1Cl)OS(=O)OCCF [1′-(R,S)]
- inhibitory activity on the hatching of eggs of Harmonia axyridis (in words) [1]: strong inhibitory activities
- Number of hatched larvae 4 days after insecticide delivery, Replicate 1 ([1]; listed as 1′-(R, S)): 0
- Number of hatched larvae 4 days after insecticide delivery, Replicate 2 ([1]; listed as 1′-(R, S)): 0
- Number of hatched larvae 4 days after insecticide delivery, Replicate 3 ([1]; listed as 1′-(R, S)): 0
- Hatching rate (%), Replicate 1 ([1]; listed as 1′-(R, S)): 0.00%
- Hatching rate (%), Replicate 2 ([1]; listed as 1′-(R, S)): 0.00%
- Hatching rate (%), Replicate 3 ([1]; listed as 1′-(R, S)): 0.00%
- inhibitory activity on the hatching of eggs of Thrips (in words) (eggs of Thrips): strong inhibitory activities
- Hatching rate (%) (eggs of Thrips; [5]): 0.00%
- Hatching rate (%) (eggs of Thrips; [6]): 0.00%
- Hatching rate (%) (eggs of Thrips; [7]): 0.00%
- Number of hatched larvae 5 days after insecticide delivery (eggs of Thrips; [5]): 0
- Number of hatched larvae 5 days after insecticide delivery (eggs of Thrips; [6]): 0
- Number of hatched larvae 5 days after insecticide delivery (eggs of Thrips; [7]): 0
- inhibitory effect on the hatching of eggs of Panonychus citri (in words) (eggs of Panonychus citri): good inhibitory effects
- Hatching rate (%), Replicate 1 (eggs of Panonychus citri; listed as 1′-(R, S)): 0.00%
- Hatching rate (%), Replicate 2 (eggs of Panonychus citri; listed as 1′-(R, S)): 0.00%
- Hatching rate (%), Replicate 3 (eggs of Panonychus citri; listed as 1′-(R, S)): 0.00%
- Number of hatched larvae 5 days after insecticide delivery, Replicate 1 (eggs of Panonychus citri; listed as 1′-(R, S)): 0
- Number of hatched larvae 5 days after insecticide delivery, Replicate 2 (eggs of Panonychus citri; listed as 1′-(R, S)): 0
- Number of hatched larvae 5 days after insecticide delivery, Replicate 3 (eggs of Panonychus citri; listed as 1′-(R, S)): 0
- inhibitory rate against Magnaporthe grisea (in words) (Magnaporthe grisea): strong inhibitory rate
- Average antifungal rate (%) (Magnaporthe grisea): 100.09%
- Antifungal rate of Magnaporthe grisea (%), Replicate 1 (Magnaporthe grisea): 100.26%
- Antifungal rate of Magnaporthe grisea (%), Replicate 2 (Magnaporthe grisea): 99.74%
- Antifungal rate of Magnaporthe grisea (%), Replicate 3 (Magnaporthe grisea): 100.26%
